ChEMBL document CHEMBL1201862, “PubChem BioAssay data set” (2004)
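96-well plates; 48 h exposure; 5 concentrations. Endpoints by linear interpolation between flanking doses. Not reached: highest tested concentration assigned. Here, GI50 denotes the concentration required for 50% inhibition of growth.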 Calls of active or inactive are those of the source. No stated cut-off is given here; in the data, active = GI50 up to about 1.1 µM and inactive = higher.

What was measured:
Assay in all cases: DTP human tumour cell line panel, 48 h
SK-MEL-28 = tested on: SK-MEL-28
DLD-1 = tested on: DLD-1
786-0 = tested on: 786-0
UACC-62 = tested on: UACC-62
SK-OV-3 = tested on: SK-OV-3
MOLT-4 = tested on: MOLT-4
LOX IMVI = tested on: LOX IMVI
SN12C = tested on: SN12C
SF-539 = tested on: SF-539
HL-60 = tested on: HL-60
A549 = tested on: A549
NCI-H226 = tested on: NCI-H226
SK-MEL-2 = tested on: SK-MEL-2
IGROV-1 = tested on: IGROV-1
SW-620 = tested on: SW-620
T47D = tested on: T47D
BT-549 = tested on: BT-549
MDA-MB-231 = tested on: MDA-MB-231
CAKI-1 = tested on: CAKI-1
MDA-N = tested on: MDA-N

Measured: GI50

Cc1ccc(-n2nc(C(OC3OC(CO)C(O)C(O)C3O)C(O)CO)c3nc4cc(C)c(C)cc4nc32)cc1 (centres undefined)
inactive: SK-MEL-28 > 100 µM | DLD-1 > 100 µM | 786-0 > 100 µM | UACC-62 > 100 µM | SK-OV-3 > 100 µM | MOLT-4 > 100 µM | LOX IMVI > 100 µM | SN12C > 100 µM | SF-539 > 100 µM

N#CC(/C(CCC(=O)Nc1ccc(Cl)cc1)=N/NC(=O)c1cc2ccccc2cc1O)c1ccccc1 (centres undefined)
inactive: SK-MEL-28 48.8 µM | HL-60 6.53 µM | DLD-1 33.7 µM | 786-0 38.3 µM | A549 40.8 µM | UACC-62 25.1 µM | NCI-H226 42.2 µM | SK-MEL-2 19.7 µM | IGROV-1 31.7 µM | SW-620 50.4 µM | MOLT-4 22.2 µM | LOX IMVI 14.5 µM | SN12C 43.4 µM

CCCCCCCCCCCCCCCC[N+](C)(C)CCl
inactive: T47D 3.57 µM | SK-MEL-28 5.19 µM | BT-549 2.29 µM | MDA-MB-231 2.02 µM | 786-0 1.55 µM | A549 5 µM | UACC-62 2.29 µM | SK-OV-3 6.87 µM | CAKI-1 2.67 µM | NCI-H226 2.12 µM | SK-MEL-2 13.3 µM | SW-620 2.69 µM | MOLT-4 1.84 µM | LOX IMVI 1.51 µM | MDA-N 3.72 µM | SN12C 3.19 µM | SF-539 2.4 µM
active: HL-60 0.964 µM | IGROV-1 0.585 µM

O=C(NCCCCCCNC(=O)OCCSCCn1cc(C(=O)NC(=O)OCc2ccccc2)c(=O)[nH]c1=O)OCCSCCn1cc(C(=O)NC(=O)OCc2ccccc2)c(=O)[nH]c1=O
inactive: DLD-1 > 100 µM | 786-0 > 100 µM | A549 > 100 µM | UACC-62 > 100 µM | CAKI-1 > 100 µM | NCI-H226 > 100 µM | SK-MEL-2 > 100 µM | IGROV-1 > 100 µM | SW-620 > 100 µM | MOLT-4 > 100 µM | LOX IMVI > 100 µM | SN12C > 100 µM

C=C1C(O)C2OC(=O)C(=C)C2C(OC(=O)/C(C)=C/C)CC2(C)OC2C2OC12 (centres undefined)
active: MOLT-4 0.634 µM
inactive: T47D 14.3 µM | SK-MEL-28 20.4 µM | HL-60 2.52 µM | BT-549 7.71 µM | MDA-MB-231 8.36 µM | 786-0 6.31 µM | A549 19.8 µM | UACC-62 15.3 µM | SK-OV-3 43.6 µM | CAKI-1 10.2 µM | NCI-H226 > 100 µM | SK-MEL-2 5.47 µM | IGROV-1 6.15 µM | SW-620 8.04 µM | LOX IMVI 6.68 µM | MDA-N 2.2 µM | SN12C 2.82 µM | SF-539 6.85 µM

CC(=O)Nc1ccc(-c2cc(C(=O)O)c3cc4ccccc4cc3n2)cc1
inactive: T47D > 100 µM | SK-MEL-28 > 100 µM | HL-60 > 100 µM | BT-549 > 100 µM | MDA-MB-231 > 100 µM | 786-0 > 100 µM | A549 > 100 µM | UACC-62 > 100 µM | SK-OV-3 > 100 µM | CAKI-1 > 100 µM | NCI-H226 > 100 µM | SK-MEL-2 > 100 µM | IGROV-1 > 100 µM | SW-620 > 100 µM | MOLT-4 > 100 µM | LOX IMVI > 100 µM | MDA-N > 100 µM | SN12C > 100 µM | SF-539 > 100 µM

O=C(O)CCC(=O)Oc1ccc(O)c2c1CCCC2=O
inactive: SK-MEL-28 > 100 µM | HL-60 > 100 µM | DLD-1 > 100 µM | 786-0 > 100 µM | A549 > 100 µM | UACC-62 69.7 µM | SK-OV-3 > 100 µM | NCI-H226 > 100 µM | SK-MEL-2 > 100 µM | IGROV-1 > 100 µM | SW-620 > 100 µM | MOLT-4 > 100 µM | LOX IMVI > 100 µM | SN12C > 100 µM | SF-539 > 100 µM

O=c1[nH]c2cc3cccnc3c(Cl)c2nc1C(F)(F)F
inactive: T47D 33.6 µM | SK-MEL-28 62.8 µM | HL-60 32.9 µM | BT-549 38.9 µM | MDA-MB-231 30.3 µM | 786-0 72.4 µM | A549 41.4 µM | UACC-62 22 µM | SK-OV-3 57.3 µM | CAKI-1 21.2 µM | NCI-H226 30.1 µM | SK-MEL-2 48.2 µM | IGROV-1 12.6 µM | SW-620 > 100 µM | MOLT-4 23.6 µM | LOX IMVI 32.4 µM | MDA-N 37.2 µM | SN12C 75.5 µM | SF-539 40.6 µM

CCOc1cc(C2SCC(=O)N2c2ccc(Oc3ccc(Cl)cc3)c(Cl)c2)ccc1O (centres undefined)
inactive: T47D 14.2 µM | SK-MEL-28 20 µM | HL-60 12.6 µM | BT-549 15.1 µM | MDA-MB-231 19.3 µM | 786-0 25 µM | A549 17.9 µM | UACC-62 16.4 µM | SK-OV-3 21.6 µM | CAKI-1 17.3 µM | NCI-H226 15.6 µM | SK-MEL-2 14 µM | IGROV-1 15.9 µM | SW-620 17 µM | MOLT-4 18.1 µM | LOX IMVI 19.4 µM | MDA-N 23.1 µM | SN12C 33 µM | SF-539 16.1 µM

OCCOCn1nncc1Cn1ncc2c(SCc3ccccc3)ncnc21
inactive: T47D 80.2 µM | SK-MEL-28 > 100 µM | HL-60 16.5 µM | BT-549 > 100 µM | MDA-MB-231 > 100 µM | 786-0 34.7 µM | A549 > 100 µM | UACC-62 > 100 µM | SK-OV-3 > 100 µM | CAKI-1 > 100 µM | NCI-H226 > 100 µM | SK-MEL-2 > 100 µM | IGROV-1 51.1 µM | SW-620 15.6 µM | MOLT-4 6.19 µM | LOX IMVI 35.5 µM | MDA-N 54.7 µM | SN12C 59.4 µM | SF-539 65 µM

COC(=O)C(CCC1C=CN(S(=O)(=O)c2ccc(C)cc2)C1)/N=C/c1ccccc1 (centres undefined)
inactive: T47D 47.6 µM | SK-MEL-28 69.5 µM | HL-60 1.29 µM | BT-549 39.6 µM | MDA-MB-231 39.6 µM | 786-0 43.8 µM | A549 42.4 µM | UACC-62 32.8 µM | SK-OV-3 80 µM | CAKI-1 87.3 µM | NCI-H226 32.3 µM | SK-MEL-2 20.1 µM | IGROV-1 38.4 µM | SW-620 41.1 µM | MOLT-4 32.8 µM | LOX IMVI 47.4 µM | MDA-N 38.3 µM | SN12C 35.5 µM | SF-539 38.6 µM

COC(=O)/C=C(/C(=O)OC)c1c(C)c(C)c2c(C)cc(C)cc(C)c1-2
inactive: T47D 80.9 µM | SK-MEL-28 33.1 µM | HL-60 > 100 µM | BT-549 22.4 µM | MDA-MB-231 18.1 µM | 786-0 > 100 µM | A549 20.6 µM | UACC-62 8.39 µM | SK-OV-3 18.2 µM | CAKI-1 27.4 µM | NCI-H226 13.3 µM | SK-MEL-2 26.2 µM | IGROV-1 37.9 µM | SW-620 17.1 µM | MOLT-4 > 100 µM | LOX IMVI 28.7 µM | MDA-N 2.24 µM | SN12C 38.8 µM | SF-539 29.4 µM

C[C@H]1CC[P+](Cc2ccccc2)(c2ccccc2)C1 (some centres undefined)
inactive: SK-MEL-28 84.7 µM | HL-60 33.9 µM | DLD-1 > 100 µM | 786-0 > 100 µM | A549 > 100 µM | UACC-62 76.6 µM | SK-OV-3 > 100 µM | NCI-H226 > 100 µM | SK-MEL-2 > 100 µM | IGROV-1 64.7 µM | SW-620 > 100 µM | MOLT-4 > 100 µM | LOX IMVI 71.4 µM | SN12C > 100 µM | SF-539 > 100 µM

COCCOCOC(C)(C)[C@H](CCOC(C)=O)O[Si](c1ccccc1)(c1ccccc1)C(C)(C)C
inactive: SK-MEL-28 56.5 µM | HL-60 3.98 µM | DLD-1 13.5 µM | 786-0 18 µM | A549 21.1 µM | UACC-62 15.7 µM | SK-OV-3 35.4 µM | CAKI-1 26.2 µM | NCI-H226 3.72 µM | SK-MEL-2 18.6 µM | IGROV-1 23.6 µM | SW-620 28.1 µM | MOLT-4 3.75 µM | LOX IMVI 14.1 µM | SN12C 5.77 µM

CNC1=C/C(=N/C2=CC(=N/C(=C\C#N)C(C)(C)O)/OC2(C)C)OC1(C)C
inactive: T47D 6.78 µM | SK-MEL-28 33.2 µM | HL-60 2.01 µM | BT-549 29.6 µM | MDA-MB-231 9.95 µM | 786-0 11.8 µM | A549 15.5 µM | UACC-62 7.91 µM | SK-OV-3 17.1 µM | CAKI-1 7.82 µM | NCI-H226 20.8 µM | SK-MEL-2 44.4 µM | IGROV-1 6.52 µM | SW-620 5.4 µM | MOLT-4 2.31 µM | LOX IMVI 5.51 µM | MDA-N 21.3 µM | SN12C 14.5 µM | SF-539 33.1 µM

CC1(C)C2CCC1C(=O)C(C=O)C2 (centres undefined)
inactive: T47D > 100 µM | SK-MEL-28 > 100 µM | HL-60 57.3 µM | BT-549 > 100 µM | MDA-MB-231 > 100 µM | 786-0 > 100 µM | A549 > 100 µM | UACC-62 > 100 µM | SK-OV-3 > 100 µM | CAKI-1 > 100 µM | NCI-H226 > 100 µM | SK-MEL-2 > 100 µM | IGROV-1 > 100 µM | SW-620 > 100 µM | MOLT-4 > 100 µM | LOX IMVI > 100 µM | MDA-N > 100 µM | SN12C > 100 µM | SF-539 74.5 µM
